Results taken from US10040781B2, “Tank-binding kinase inhibitor compounds” (Gilead Sciences, Inc., priority 2014, dated 2018).
Like-named read-outs stand apart in the source and are kept apart here.

Experiments:
IKKε = IKKε (Homo sapiens (Human), UniProt Q14164); assay: IKKε TR-FRET enzymatic assay; format: biochemical
TBK1 = TBK1 (Homo sapiens (Human), UniProt Q9UHD2); assay: TBK1 TR-FRET enzymatic assay;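 further: phosphorylation of a biotinylated Ser/Thr peptide by purified full-length recombinant TBK1, read by TR-FRET after 240 min at 25 °C, IC50 is the geometric mean of at least four runs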
hJAK2 = hJAK2 (Homo sapiens (Human), UniProt O60674); assay: hJAK2 LANCE TR-FRET enzymatic assay; format: biochemical; conditions: read-out: JAK2 IC50
Sequence of hJAK2 (O60674 whole entry): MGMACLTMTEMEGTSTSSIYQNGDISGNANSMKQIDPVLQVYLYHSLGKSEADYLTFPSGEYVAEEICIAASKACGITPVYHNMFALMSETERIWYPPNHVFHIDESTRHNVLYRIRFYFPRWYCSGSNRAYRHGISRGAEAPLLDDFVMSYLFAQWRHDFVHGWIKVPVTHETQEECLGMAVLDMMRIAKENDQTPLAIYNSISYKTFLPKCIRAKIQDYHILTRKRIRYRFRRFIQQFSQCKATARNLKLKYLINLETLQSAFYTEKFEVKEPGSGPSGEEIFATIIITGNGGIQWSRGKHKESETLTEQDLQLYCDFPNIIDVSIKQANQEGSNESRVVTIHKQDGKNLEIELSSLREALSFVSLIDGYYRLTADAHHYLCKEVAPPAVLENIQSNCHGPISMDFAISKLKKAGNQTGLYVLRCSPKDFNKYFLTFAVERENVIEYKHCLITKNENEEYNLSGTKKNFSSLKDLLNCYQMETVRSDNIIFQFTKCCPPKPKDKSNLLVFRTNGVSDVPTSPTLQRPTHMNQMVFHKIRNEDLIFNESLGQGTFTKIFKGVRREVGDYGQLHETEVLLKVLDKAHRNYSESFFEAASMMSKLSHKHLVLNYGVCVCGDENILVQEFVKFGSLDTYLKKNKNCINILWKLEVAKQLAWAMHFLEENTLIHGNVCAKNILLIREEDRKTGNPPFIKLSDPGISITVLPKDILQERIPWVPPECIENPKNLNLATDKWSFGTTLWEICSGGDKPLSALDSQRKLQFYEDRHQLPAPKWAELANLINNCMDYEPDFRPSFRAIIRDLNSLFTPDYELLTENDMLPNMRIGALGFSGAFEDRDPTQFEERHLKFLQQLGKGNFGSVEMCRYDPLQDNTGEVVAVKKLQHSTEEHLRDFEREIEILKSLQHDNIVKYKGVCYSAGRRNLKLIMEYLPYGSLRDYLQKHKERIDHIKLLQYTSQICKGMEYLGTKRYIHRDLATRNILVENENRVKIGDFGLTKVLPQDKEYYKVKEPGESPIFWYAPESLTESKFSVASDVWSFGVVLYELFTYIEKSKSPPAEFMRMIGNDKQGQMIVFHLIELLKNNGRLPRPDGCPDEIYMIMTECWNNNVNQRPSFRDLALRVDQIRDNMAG

Sequence of TBK1 (Q9UHD2 whole entry): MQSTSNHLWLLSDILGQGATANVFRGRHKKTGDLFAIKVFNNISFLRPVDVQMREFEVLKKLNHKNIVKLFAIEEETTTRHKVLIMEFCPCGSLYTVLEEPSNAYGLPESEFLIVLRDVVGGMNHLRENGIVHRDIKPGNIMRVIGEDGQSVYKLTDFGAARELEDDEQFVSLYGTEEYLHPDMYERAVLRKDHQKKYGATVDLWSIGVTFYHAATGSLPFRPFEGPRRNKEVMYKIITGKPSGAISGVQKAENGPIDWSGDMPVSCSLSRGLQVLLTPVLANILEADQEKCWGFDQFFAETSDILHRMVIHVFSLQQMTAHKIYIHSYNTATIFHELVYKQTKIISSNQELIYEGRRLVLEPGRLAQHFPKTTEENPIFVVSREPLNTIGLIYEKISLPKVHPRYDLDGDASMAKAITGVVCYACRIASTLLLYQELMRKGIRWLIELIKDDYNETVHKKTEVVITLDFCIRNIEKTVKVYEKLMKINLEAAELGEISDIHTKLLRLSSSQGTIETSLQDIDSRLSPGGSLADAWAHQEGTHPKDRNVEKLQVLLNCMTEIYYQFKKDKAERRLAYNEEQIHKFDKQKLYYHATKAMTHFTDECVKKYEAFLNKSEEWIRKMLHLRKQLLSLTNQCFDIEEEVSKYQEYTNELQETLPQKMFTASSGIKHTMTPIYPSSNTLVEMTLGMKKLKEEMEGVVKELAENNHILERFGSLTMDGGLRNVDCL
Sequence of IKKε (Q14164 whole entry): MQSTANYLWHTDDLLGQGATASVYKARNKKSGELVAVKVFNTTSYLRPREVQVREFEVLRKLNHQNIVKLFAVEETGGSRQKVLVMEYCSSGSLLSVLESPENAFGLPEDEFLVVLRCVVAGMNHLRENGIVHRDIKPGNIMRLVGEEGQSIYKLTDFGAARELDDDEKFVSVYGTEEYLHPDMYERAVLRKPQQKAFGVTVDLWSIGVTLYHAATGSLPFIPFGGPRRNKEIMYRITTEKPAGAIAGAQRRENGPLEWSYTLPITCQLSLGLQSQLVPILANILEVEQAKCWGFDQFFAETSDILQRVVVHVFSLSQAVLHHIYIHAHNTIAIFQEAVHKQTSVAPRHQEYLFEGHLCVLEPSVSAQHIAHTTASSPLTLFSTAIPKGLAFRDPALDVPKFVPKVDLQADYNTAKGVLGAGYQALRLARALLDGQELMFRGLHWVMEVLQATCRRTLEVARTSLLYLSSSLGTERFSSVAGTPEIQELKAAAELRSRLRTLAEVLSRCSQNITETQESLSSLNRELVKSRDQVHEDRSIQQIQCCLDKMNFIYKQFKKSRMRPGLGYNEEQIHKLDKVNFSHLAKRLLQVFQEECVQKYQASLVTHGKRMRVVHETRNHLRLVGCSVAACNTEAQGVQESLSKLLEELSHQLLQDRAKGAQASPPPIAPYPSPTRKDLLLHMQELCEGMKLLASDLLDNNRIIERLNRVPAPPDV

SMILES	IC50 (IKKε; read-out: IKKe IC50) [nM]	IC50 (TBK1) [nM]	IC50 (hJAK2) [nM]	other results
N#Cc1cc(-c2ncnc(Nc3ccc(N4CCN(C5COC5)CC4)cc3)n2)ccc1O[C@@H]1CCN(C(=O)CO)C[C@@H]1F (racemic) [Example 218, 2-((cis-3-fluoro-1-(2-hydroxyacetyl)piperidin-4-yl)oxy)-5-(4-((4-(4-(oxetan-3-yl)piperazin-1-yl)phenyl)amino)-1,3,5-triazin-2-yl)benzonitrile]	3	–	–	–
N#Cc1cc(-c2ncnc(Nc3ccc(N4CCN(C5COC5)CC4)cc3)n2)ccc1OC1CC[S+]([O-])CC1 (single isomer, unassigned) [Example 25, 5-(4-((4-(4-(oxetan-3-yl)piperazin-1-yl)phenyl)amino)-1,3,5-triazin-2-yl)-2-((1-oxidotetrahydro-2H-thiopyran-4-yl)oxy)benzonitrile]	–	–	–	IC50 (IKKε; IKKe IC50): 73 nM; IC50 (TBK1; TBK1 IC50): 21 nM
N#Cc1cc(-c2ncnc(Nc3ccc(N4CCN(C5COC5)CC4)cc3)n2)ccc1OC1CC[S+]([O-])CC1 (single isomer, unassigned) [Example 26, 5-(4-((4-(4-(oxetan-3-yl)piperazin-1-yl)phenyl)amino)-1,3,5-triazin-2-yl)-2-((1-oxidotetrahydro-2H-thiopyran-4-yl)oxy)benzonitrile]	–	–	–	IC50 (IKKε; IKKe IC50): 23 nM; IC50 (TBK1; TBK1 IC50): 6 nM
COC(=O)N1CC[C@@H](Oc2ccc(-c3ncnc(Nc4ccc(N5CCN(C6COC6)CC5)cc4)n3)cc2C#N)C1 [Example 2, (R)-methyl 3-(2-cyano-4-(4-((4-(4-(oxetan-3-yl)piperazin-1-yl)phenyl)amino)-1,3,5-triazin-2-yl)phenoxy)pyrrolidine-1-carboxylate]	148	37	–	–
CNC(=O)c1ccc(Nc2ncnc(-c3ccc(OC4CCOCC4)c(C#N)c3)n2)cc1 [Example 14, 4-((4-(3-cyano-4-((tetrahydro-2H-pyran-4-yl)oxy)phenyl)-1,3,5-triazin-2-yl)amino)-N-methylbenzamide]	21	4	–	–
N#Cc1cc(-c2ncnc(Nc3ccc(N4CCN(C5COC5)CC4)cc3)n2)ccc1O[C@@H]1CCOC1 [Example 29, (R)-5-(4-((4-(4-(oxetan-3-yl)piperazin-1-yl)phenyl)amino)-1,3,5-triazin-2-yl)-2-((tetrahydrofuran-3-yl)oxy)benzonitrile]	32	5	–	–
N#Cc1cc(-c2ncnc(Nc3ccc(N4CCOCC4)cc3)n2)ccc1NC(=O)[C@@H]1CCCN1 [Example 37, (S)—N-(2-cyano-4-(4-((4-morpholinophenyl)amino)-1,3,5-triazin-2-yl)phenyl)pyrrolidine-2-carboxamide]	305	203	–	–
COc1cc(Nc2ncnc(-c3ccc(OC4CCOCC4)c(C#N)c3)n2)cc(F)c1N1CCN(C2COC2)CC1 [Example 61, 5-(4-((3-fluoro-5-methoxy-4-(4-(oxetan-3-yl)piperazin-1-yl)phenyl)amino)-1,3,5-triazin-2-yl)-2-((tetrahydro-2H-pyran-4-yl)oxy)benzonitrile]	7	2	–	–
N#Cc1cc(-c2ncnc(Nc3ccc(N4CCO[C@@H](CO)C4)cc3)n2)ccc1OC1CCOCC1 [Example 107, (R)-5-(4-((4-(2-(hydroxymethyl)morpholino)phenyl)amino)-1,3,5-triazin-2-yl)-2-((tetrahydro-2H-pyran-4-yl)oxy)benzonitrile]	3	–	–	–
N#Cc1cc(-c2ncnc(Nc3ccc(N4CCN(C5COC5)CC4)cc3)n2)ccc1O[C@@H]1CCN(C(=O)CO)C[C@@H]1F [Example 224, 2-(((3S,4R)-3-fluoro-1-(2-hydroxyacetyl)piperidin-4-yl)oxy)-5-(4-((4-(4-(oxetan-3-yl)piperazin-1-yl)phenyl)amino)-1,3,5-triazin-2-yl)benzonitrile]	23	–	–	–
N#Cc1cc(-c2ncnc(Nc3ccc(N4CCN(C5COC5)CC4)cc3)n2)ccc1O[C@@H]1CCN(C(=O)CO)C[C@H]1F [Example 235, 2-(((3R,4R)-3-fluoro-1-(2-hydroxyacetyl)piperidin-4-yl)oxy)-5-(4-((4-(4-(oxetan-3-yl)piperazin-1-yl)phenyl)amino)-1,3,5-triazin-2-yl)benzonitrile]	5	–	–	–

More lines, main results first:

IC50 (IKKε; read-out: IKKe IC50) [nM]	IC50 (TBK1) [nM]	IC50 (hJAK2) [nM]	SMILES	other results
43	–	–	N#Cc1cc(-c2ncnc(Nc3ccc(C4CCN(C5COC5)CC4)cc3)n2)ccc1OC1CCS(=O)(=O)CC1 [Example 270, 2-((1,1-dioxidotetrahydro-2H-thiopyran-4-yl)oxy)-5-(4-((4-(1-(oxetan-3-yl)piperidin-4-yl)phenyl)amino)-1,3,5-triazin-2-yl)benzonitrile]	–
–	2	457	C[C@H](O)C(=O)N1CC[C@H](Oc2ccc(-c3ncnc(Nc4ccc(N5CCN(C)C[C@@H]5C)cc4)n3)cc2C#N)[C@H](F)C1 [Example 501, 5-(4-((4-((S)-2,4-dimethylpiperazin-1-yl)phenyl)amino)-1,3,5-triazin-2-yl)-2-(((3R,4S)-3-fluoro-1-((S)-2-hydroxypropanoyl)piperidin-4-yl)oxy)benzonitrile]	–
–	2	49	COc1cc(Nc2ncnc(-c3ccc(O[C@H]4CCN(C(=O)CO)C[C@H]4F)c(C#N)c3)n2)ccc1N1CCN(C)C[C@@H]1C [Example 508, 5-(4-((4-((S)-2,4-dimethylpiperazin-1-yl)-3-methoxyphenyl)amino)-1,3,5-triazin-2-yl)-2-(((3R,4S)-3-fluoro-1-(2-hydroxyacetyl)piperidin-4-yl)oxy)benzonitrile]	–
–	2	355	C[C@H]1CN(C)CCN1c1ccc(Nc2ncnc(-c3ccc(O[C@H]4CCN(C(=O)[C@@H](O)CO)C[C@H]4F)c(C#N)c3)n2)cc1 [Example 515, 2-(((3R,4S)-1-((S)-2,3-dihydroxypropanoyl)-3-fluoropiperidin-4-yl)oxy)-5-(4-((4-((S)-2,4-dimethylpiperazin-1-yl)phenyl)amino)-1,3,5-triazin-2-yl)benzonitrile]	–
–	10	811	C[C@H]1OC(=O)N[C@@H]1C(=O)N1CC[C@H](Oc2ccc(-c3ncnc(Nc4ccc(N5CCN(C6COC6)CC5)cc4)n3)cc2C#N)[C@H](F)C1 [Example 523, 2-(((3R,4S)-3-fluoro-1-((4S,5R)-5-methyl-2-oxooxazolidine-4-carbonyl)piperidin-4-yl)oxy)-5-(4-((4-(4-(oxetan-3-yl)piperazin-1-yl)phenyl)amino)-1,3,5-triazin-2-yl)benzonitrile]	–
–	12	≥ 1000	COCCNc1ccc(Nc2ncnc(-c3ccc(O[C@H]4CCN(C(=O)[C@H](C)O)C[C@H]4F)c(C#N)c3)n2)cn1 [Example 543, 2-(((3R,4S)-3-fluoro-1-((S)-2-hydroxypropanoyl)piperidin-4-yl)oxy)-5-(4-((6-((2-methoxyethyl)amino)pyridin-3-yl)amino)-1,3,5-triazin-2-yl)benzonitrile]	–
–	517	≥ 1000	N#Cc1cc(-c2ncnc(Nc3ccc(N4CCN(C5COC5)CC4)cc3)n2)ccc1OCCCN1CCCC1=O [Example 600, 5-(4-((4-(4-(oxetan-3-yl)piperazin-1-yl)phenyl)amino)-1,3,5-triazin-2-yl)-2-(3-(2-oxopyrrolidin-1-yl)propoxy)benzonitrile]	–
–	466	≥ 1000	CN1CCN(C(=O)N(C)CCOc2ccc(-c3ncnc(Nc4ccc(N5CCN(C6COC6)CC5)cc4)n3)cc2C#N)CC1 [Example 603, N-(2-(2-cyano-4-(4-((4-(4-(oxetan-3-yl)piperazin-1-yl)phenyl)amino)-1,3,5-triazin-2-yl)phenoxy)ethyl)-N,4-dimethylpiperazine-1-carboxamide]	–
